Our source for the Ki values is ChEMBL document CHEMBL1150445, “A new galactosyl transferase inhibitor” (Bioorg Med Chem Lett, 1993).

For this experiment, the target named is T1, Beta-1,4-galactosyltransferase 1 (Bos taurus, UniProt P08037).
T1 sequence (P08037 whole entry): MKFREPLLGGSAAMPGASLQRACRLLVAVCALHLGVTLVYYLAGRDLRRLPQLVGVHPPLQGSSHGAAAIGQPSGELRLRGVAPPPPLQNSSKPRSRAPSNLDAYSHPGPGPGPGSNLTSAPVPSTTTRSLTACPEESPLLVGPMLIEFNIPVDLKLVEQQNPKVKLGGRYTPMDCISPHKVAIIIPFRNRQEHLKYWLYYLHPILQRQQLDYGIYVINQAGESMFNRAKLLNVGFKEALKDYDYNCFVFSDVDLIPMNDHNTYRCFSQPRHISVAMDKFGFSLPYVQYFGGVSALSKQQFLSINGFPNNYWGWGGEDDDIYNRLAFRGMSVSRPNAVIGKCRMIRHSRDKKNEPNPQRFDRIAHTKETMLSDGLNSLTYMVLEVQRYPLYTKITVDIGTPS
Put plainly: Inhibition constant of compound was tested against Beta-galactosyltransferase from bovine milk.
Compound `O=c1ccn([C@@H]2O[C@H](COP(=O)(O)OP(=O)(O)OP(=O)(O)O)[C@@H](O)[C@H]2O)c(=O)[nH]1` [URIDINE TRIPHOSPHATE] yielded a Ki of 128 µM.

In turn, `O=c1ccn(C2O[C@H](COP(=O)(O)CP(=O)(O)OC3OC(O)C(O)C(O)C3O)[C@@H](O)[C@H]2O)c(=O)[nH]1` (stereo not given in full) came in with a Ki of 96.9 µM. The value for `O=c1ccn(C2O[C@H](COP(=O)(O)OP(=O)(O)C3OC(O)C(O)C(O)C3O)[C@@H](O)[C@H]2O)c(=O)[nH]1` (stereo not given in full) was 165 µM; that for `O=c1ccn(C2O[C@H](COP(=O)(O)OP(=O)(O)CC3=CC(O)C(O)C(CO)O3)[C@@H](O)[C@H]2O)c(=O)[nH]1` (stereo not given in full) was 62 µM; that for `O=P(O)(O)CC1=CC(O)C(O)C(CO)O1` (stereo not given) was 1430 µM.

In general, Ki refers to the dissociation constant of the complex between target and ligand, obtained from inhibition or displacement. A high value points to a looser hold on the target.
